From patent US12502410B2, “Preservation of pancreatic islet grafts in the extrahepatic space” (The Regents of the University of California, priority 2017, dated 2025)

B1: parathyroid hormone (protein, UniProt P01270 32-115, looked up)
Parathyroid hormone: SVSEIQLMHNLGKHLNSMERVEWLRKKLQDVHNFVALGAPLAPRDAGSQRPRKKEDNVLVESHEKSLGEADKADVNVLTKAKSQ
modifications: Parathyroid hormone
notes: main PTG-secreted hormone added to cultures

How the values were obtained:
SCIPC [1] = test: SCIPC viability in nutrient deprived and/or hypoxic culture, PI staining and flow cytometry; type: cell-based, human; conditions: for preservation of insulin-producing cells after stress: SCIPC; for beta cell / SCIPC survival: nutrient deprived and/or hypoxic environment, 24 hours
Description: (§1) SCIPC cultured for 24 hours in nutrient deprived and/or hypoxic conditions with or without GABA, PTH, and PTHrP At the end of the experiment, islet viability was measured using PI staining followed by flow cytometry. FIG. 11B depicts the effect of GABA, PTH and PTHrP on preserving insulin-producing cells after stress. FIG. 11C depicts quantification of viability of eBC cultured for 24 hours in nutrient deprived or hypoxic conditions with or without GABA, PTH, and PTHrP. […] Quantification of viability of cBC cultured for 24 hours in nutrient deprived and/or hypoxic conditions with or without leptin or serotonin. Islet viability measured using PI staining followed by flow cytometry.
(§2) In order to understand whether cell survival is due to secreted pro-survival or pro-angiogenic molecules, known PTG-released molecules were added to SCIPC and eBC cultures in vitro. While PTH is the main PTG-secreted hormone, previous publications also show GABA production within the PTG. GABA and PTH improve beta cell survival in nutrient deprived and/or hypoxic environment in vitro (FIG. 11A).

eBC = eBC viability in nutrient deprived and/or hypoxic culture, PI staining and flow cytometry; type: cell-based, human; conditions: 24 hours; for preservation of insulin-producing cells after stress: nutrient deprived or hypoxic; for beta cell survival: nutrient deprived and/or hypoxic
Description: as §1, §2

SCIPC [2] = test: Amino acid supplementation, viability of high density culture (PI staining); type: cell-based, human; conditions: 3000 clusters/mL, RPMI+5% serum
Source text: (§3) FIG. 15A, FIG. 15B, and FIG. 15C depict the effect of nutrient supplementation on islet cell death in vitro. The effects of cell survival by supplementation of amino acids on mouse islets (FIG. 15A), human islets (FIG. 15B), and SCIPC (FIG. 15C) cultured in low or high density conditions (mouse=1000 islets/mL, human=1000 islets/mL, SCIPC=3000 clusters/mL) in RPMI+5% serum with addition of glucose. GLN: glutamine, TRP: tryptophan. Cell viability is quantified using PI staining via flow cytometry. Data shown are a summary of 3 independent experiments.
(§4) Various insulin-producing cells cultured in low (nutrient replete; mouse=200 islets/mL, human=200 islets/mL, SCIPC=200 clusters/mL) or high density conditions (nutrient limiting; mouse=1000 islets/mL, human=1000 islets/mL, SCIPC=3000 clusters/mL) in RPMI+5% serum with addition of glucose.

human islets = test: as above; type: cell-based; conditions: 1000 islets/mL, RPMI+5% serum
Source text: as §3, §4

mouse islets = test: as above; type: cell-based; conditions: 1000 islets/mL, RPMI+5% serum
Source text: as §3, §4

Molecule | preservation of insulin-producing cells after stress (SCIPC [1]) | beta cell / SCIPC survival (SCIPC [1]) | preservation of insulin-producing cells after stress (eBC) | further results
NCCCC(=O)O [GABA] | preferentially preserve | improve | preferentially preserve | –
NC(=O)CC[C@H](N)C(=O)O [glutamine] | – | – | – | viability under nutrient-limiting condition (SCIPC [2]): preserved viability; viability under nutrient-limiting condition (human islets): preserved viability; viability under nutrient-limiting condition (mouse islets): preserved viability
NCCc1c[nH]c2ccc(O)cc12 [serotonin] | – | – | – | beta cell survival (eBC): preserves beta cell survival
N[C@@H](Cc1c[nH]c2ccccc12)C(=O)O [tryptophan] | – | – | – | viability under nutrient-limiting condition (SCIPC [2]): preserved viability; viability under nutrient-limiting condition (human islets): preserved viability; viability under nutrient-limiting condition (mouse islets): preserved viability
leptin | – | – | – | beta cell survival (eBC): preserves beta cell survival
parathyroid hormone-related protein [PTHrP] | preferentially preserve | preserve SCIPC survival | preferentially preserve | –
B1 | preferentially preserve | improve | preferentially preserve | –
